Values quoted from earlier work in US20220401509A1, “Composition For Improving Mental State, Production Method For Composition For Improving Mental State, And Use Of Fruit Of Eggplant For Improving Mental State” (SHINSHU UNIVERSITY, priority 2019, published 2022).

What was measured:
[1] = system: adult individuals; conditions: according to the "Foods with Function Claims" in Japan
[2] = system: spontaneously hypertensive rats (SHRs); conditions: purified, single oral dose to SHR

Row | Structure (SMILES) | effective dose for antihypertensive effect in adult individuals [1] | antihypertensive effect [2]
1 | O=C(/C=C/c1ccc(O)c(O)c1)O[C@@H]1C[C@](O)(C(=O)O)C[C@@H](O)[C@H]1O [CA, chlorogenic acid] | 271 mg/day | –
2 | NCCCC(=O)O [GABA, γ-aminobutyric acid] | 12.3 mg/day | –
3 | CCCC(=O)OCC[N+](C)(C)C [butyrylcholine] | – | had an antihypertensive effect
4 | CC(O)C(=O)OCC[N+](C)(C)C.[I-] (centres unmarked) [lactoylcholine] | – | had an antihypertensive effect
5 | CCC(=O)OCC[N+](C)(C)C [propionylcholine] | – | had an antihypertensive effect
